From article PMC10065799, “High-throughput profiling of sequence recognition by tyrosine kinases and SH2 domains using bacterial peptide display” (eLife, 2023)
Read-outs that look alike come from different tables or passages of the source.

Legend:
c-Src kinase domain [1] = target: T1, c-Src kinase domain (Homo sapiens, UniProt P12931); assay: pTyr-Var library bacterial peptide display kinase screen (enrichment scores); assay type: biochemical;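 note: log2 fold change in enrichment of variant over reference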
EPHB2 kinase domain = assay: as above; assay type: biochemical, human; conditions: sheet EPHB2;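 note: log2 fold change in enrichment of variant over reference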
c-Abl kinase domain = target: T2, c-Abl kinase domain (Mus musculus, UniProt P00520); assay: as above; assay type: biochemical;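 note: log2 fold change in enrichment of variant over reference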
T2 sequence (P00520 242-493 limits assumed): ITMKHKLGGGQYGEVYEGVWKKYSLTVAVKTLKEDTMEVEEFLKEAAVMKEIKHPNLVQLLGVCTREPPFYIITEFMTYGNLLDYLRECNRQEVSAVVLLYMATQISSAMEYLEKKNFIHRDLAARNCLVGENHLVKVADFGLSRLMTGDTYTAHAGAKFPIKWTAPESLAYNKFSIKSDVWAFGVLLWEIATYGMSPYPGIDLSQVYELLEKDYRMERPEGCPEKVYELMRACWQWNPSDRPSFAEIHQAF

EPHB1 kinase domain = assay: as above; assay type: biochemical, human; conditions: for Screen (variant relative to reference peptide, measured in the pTyr-Var library screen): sheet "EPHB1", variant seq vs reference seq, bacterial peptide display enrichment; for Screen: sheet EPHB1, effect of the variant peptide relative to its reference peptide in the pTyr-Var library screen (enrichment scores)
Fer kinase domain = assay: as above; assay type: biochemical, mouse; conditions: sheet "Fer"
c-Src kinase domain [2] = target: T1, c-Src kinase domain; assay: RP-HPLC assay to measure peptide phosphorylation kinetics; assay type: biochemical; conditions: purified peptide substrate
Procedure: To validate the enrichment scores observed in the c-Src screening data, the phosphorylation rates were measured in vitro with the purified catalytic domain of c-Src and synthetic 11-residue peptides derived from sequences in the pTyr-Var library. […] Reactions were initiated by adding 1 mM ATP. At various time points, 100 μL aliquots were removed and quenched by the addition of EDTA to a final concentration of 25 mM. Each time point sample was analyzed by analytical RP-HPLC, monitoring absorbance at 214 nm. Forty μL of each time point was injected onto a C18 column (ZORBAX 300 SB-C18, 5 μm, 4.6x150 mm). The solvent system used was water with 0.1% trifluoroacetic acid (solvent A) and acetonitrile with 0.1% trifluoroacetic acid (solvent B). […] The fractional product peak area was plotted as a function of reaction time, and the initial linear regime of this plot was fitted to a straight line to determine a reaction rate. Rates were corrected for substrate and enzyme concentration. Reactions were done in triplicate or quadruplicate.

[3] = sheet "Src", variant peptide versus its reference peptide in the pTyr-Var library screen
[4] = effect of variant peptide relative to its reference peptide in the pTyr-Var library screen (enrichment scores)
[5] = effect of the variant relative to its reference peptide in the pTyr-Var library screen
[6] = value of the variant peptide against its reference peptide in the pTyr-Var library screen with Fer
[7] = sheet "Src", effect of the variant peptide relative to its reference peptide in the pTyr-Var library screen
[8] = variant peptide relative to its reference peptide, pTyr-Var library screen enrichment

ADARMYGVLPR [PLP1_Y207_W212R] was tested, and the Screen (c-Src kinase domain [1]; [3]) was -3.205 and the Screen (EPHB2 kinase domain; [4]) was -2.437.
AEFGLYAAMVR [VSX2_Y222_G223A_YF] was tested, and the Screen (c-Src kinase domain [1]; [3]) was -0.7281, the Screen (c-Abl kinase domain; sheet "Abl", effect of variant peptide relative to its reference peptide in pTyr-Var library screen (enrichment)) was 2.617 and the “Screen (variant relative to reference peptide, measured in the pTyr-Var library screen)” value (EPHB1 kinase domain) was 1.956. For the same substance, the Screen (EPHB2 kinase domain; [5]) was 1.609.
Substance ALTDNYMFVVI [HAGH_Y61_L64V_YF] has a Screen (Fer kinase domain; [6]) of 0.9324, a Screen (EPHB1 kinase domain) of 0.4544 and a Screen (EPHB2 kinase domain; [4]) of 0.5365.
ASFSLYEPAKM [MKI67_Y340_P338S] showed a Screen (c-Src kinase domain [1]; [7]) of -1.253, a Screen (Fer kinase domain; [6]) of -0.8096 and a Screen (EPHB1 kinase domain) of -1.581. It also gave a Screen (EPHB2 kinase domain; [4]) of -1.997.
With AVIADYMFWLG [SPATA16_Y290_M286V] the Screen (Fer kinase domain; [8]) was -0.04255, the “Screen (variant relative to reference peptide, measured in the pTyr-Var library screen)” value (EPHB1 kinase domain) was -0.3108 and the Screen (EPHB2 kinase domain; [4]) was -0.2895.
“Ac-EGWQVYRLGAR-NH2 [MISP_Y95, pTyr-Var library phosphosite peptide, non-canonical c-Src substrate]” was tested, and the “Phosphorylation Rate” value (c-Src kinase domain [2]) was 0.701 s⁻¹.
CPPKVYELMIA [ABL2_Y515_R519I] showed a Screen (c-Src kinase domain [1]) of 0.5796, a Screen (Fer kinase domain; [6]) of 0.2175 and a Screen (EPHB1 kinase domain) of -0.2414. The Screen (EPHB2 kinase domain; [4]) was -0.0581.
In the case of DAHFTYSRFPW [LY75_Y888_D884A_YF], the Screen (c-Src kinase domain [1]; [7]) was 0.1806, the Screen (EPHB1 kinase domain) was -0.9728 and the Screen (EPHB2 kinase domain; [4]) was -0.5554.
DNKALYDICFR [TUBB3_Y208_E205K] was tested, and the Screen (c-Src kinase domain [1]; [3]) was -0.8548, the Screen (Fer kinase domain; [8]) was -1.219 and the “Screen (variant relative to reference peptide, measured in the pTyr-Var library screen)” value (EPHB1 kinase domain) was -0.6777. The Screen (EPHB2 kinase domain; [5]) was -1.114.
ELANLYHHVWM [BICD2_Y538_C542W] showed a Screen (c-Src kinase domain [1]; [7]) of 0.8025, a Screen (c-Abl kinase domain; fig5-data2, sheet "Abl", Screen for the variant/reference peptide pair, pTyr-Var library) of -0.8428 and a Screen (Fer kinase domain; [6]) of 2.831. It also gave a Screen (EPHB1 kinase domain) of 3.328 and a Screen (EPHB2 kinase domain; [4]) of 1.55.
Substance FEELVYETVRV [FSHB_Y76_K72E] has a Screen (c-Src kinase domain [1]; [7]) of -0.8103, a Screen (Fer kinase domain; [6]) of -0.5222 and a Screen (EPHB1 kinase domain) of -1.125. It also gave a Screen (EPHB2 kinase domain; [4]) of -0.7932.
FGMQLYQKFMH [GRB14_Y347_N349K_YF] gave a Screen (c-Src kinase domain [1]; [7]) of -0.6929, a Screen (Fer kinase domain; [6]) of -1.436 and a Screen (EPHB1 kinase domain) of -1.356. For the same substance, the Screen (EPHB2 kinase domain; [4]) was -1.587.
In the case of GFILMYDITNK [RAB3C_Y110_E115K], the Screen (EPHB2 kinase domain; [4]) was -0.5126.
For GSESDYIIMPN [SCARB1_Y133_V135I], the “Screen (variant relative to reference peptide, measured in the pTyr-Var library screen)” value (EPHB1 kinase domain) was -0.2975 and the Screen (EPHB2 kinase domain; [4]) was -0.2465.
HLMLQYDAVVN [SLC25A32_Y152_R147H] showed a Screen (Fer kinase domain; [8]) of 1.415 and a Screen (EPHB2 kinase domain; [4]) of 1.051.
Substance HNVAIYEGFAL [ACTC1_Y168_P166A_YF] has a Screen (c-Src kinase domain [1]; [7]) of -0.2279, a Screen (Fer kinase domain; [6]) of -0.3735 and a Screen (EPHB1 kinase domain) of -1.018. It also gave a Screen (EPHB2 kinase domain; [4]) of -1.285.
IQRSLYDCPAS [PDGFRA_Y762_R764C] gave a Screen (Fer kinase domain; [6]) of 2.142, a Screen (EPHB1 kinase domain) of 2.32 and a Screen (EPHB2 kinase domain; [4]) of 2.388.
Substance LAIERYVVVSK [RHO_Y136_C140S] has a Screen (EPHB2 kinase domain; [4]) of 0.1273.
Work on LIGWRYDDPEV [HSPA9_Y128_R126W] yielded a Screen (EPHB2 kinase domain; [4]) of -0.9592.
LPPREYVVVPS [CAPN1_Y494_G492R] gave a Screen (Fer kinase domain; [6]) of 0.6785, a Screen (EPHB1 kinase domain) of -0.6929 and a Screen (EPHB2 kinase domain; [4]) of -0.3372.
In the case of LQEQNYPAVDS [FAM114A1_Y115_L116P], the Screen (Fer kinase domain; [6]) was -1.861, the Screen (EPHB1 kinase domain) was -2.139 and the Screen (EPHB2 kinase domain; [4]) was -0.9591.
In the case of MAPQMYESHLP [NCAPD2_Y6_F8S], the Screen (Fer kinase domain; [6]) was -1.098, the Screen (EPHB1 kinase domain) was -3.091 and the Screen (EPHB2 kinase domain; [4]) was -2.267.
